Structures can show the parent of a compound that is named as a salt.
Experiments:
[1] = target: T1, Histamine H3 receptor (Cavia porcellus, UniProt Q9JI35); assay: Histamine H3 radioligand binding assay, guinea pig cortex ([3H]-R-α-methylhistamine); settings: guinea pig cortex membranes, competition with 1 nM [3H]-R-α-methylhistamine; for Ki: read-out: pKi (Guinea pig cortex) (converted)
Summary of the method: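 Male Dunkin Hartley guinea pig cortical membranes incubated 165 min at 21±3 °C in 20 mM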

[2] = target: T1, Histamine H3 receptor; assay: Histamine H3 functional assay, guinea pig ileum (ileal longitudinal muscle, myenteric plexus); design: species or system tissue; settings: antagonist affinity from rightward shift of R-(α)-methylhistamine E/[A] curves (Schild), typical variance ±0.15 log units; for Kb: read-out: pKb (Guinea pig ileum) (converted)
Summary of the method: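 Longitudinal muscle–myenteric plexus strips from male Dunkin-Hartley guinea pigs (250-300 g), Krebs-Henseleit buffer at 37±1° C, field-stimulated at 0.1 Hz, 0.5 msec, supramaximal voltage; isometric recording. Cumulative R-(α)-methylhistamine E/[A] curves as % inhibition of twitch height; antagonist affinity by Schild analysis of rightward shift.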

T1 sequence (Q9JI35 whole entry): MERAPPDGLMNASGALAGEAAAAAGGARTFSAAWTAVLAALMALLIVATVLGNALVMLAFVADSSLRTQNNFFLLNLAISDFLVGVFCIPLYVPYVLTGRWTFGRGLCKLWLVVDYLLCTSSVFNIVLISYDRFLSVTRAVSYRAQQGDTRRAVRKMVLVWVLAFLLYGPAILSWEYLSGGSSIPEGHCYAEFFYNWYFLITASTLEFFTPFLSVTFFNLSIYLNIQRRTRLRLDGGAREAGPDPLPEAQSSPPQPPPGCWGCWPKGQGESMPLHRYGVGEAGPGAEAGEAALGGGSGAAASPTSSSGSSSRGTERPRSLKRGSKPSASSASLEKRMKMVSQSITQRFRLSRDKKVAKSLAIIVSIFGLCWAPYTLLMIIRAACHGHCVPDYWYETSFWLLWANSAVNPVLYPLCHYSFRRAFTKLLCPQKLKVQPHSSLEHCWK

Structure (SMILES) | Ki [1] [nM] | Kb [2] [nM] | pKi (Guinea pig cortex) [1] | pKb (Guinea pig ileum) [2]
CN1CCN(CCCCCNC(=N)NCC23CC4CC(CC(C4)C2)C3)CC1.Cl.Cl.Cl [Example 63, N-Adamantan-1-yl-methyl-N′-(5-(4-methyl-piperazin-1-yl)-pentyl)-guanidine tris-hydrochloride] | – | – | 7.7 | 7.4
N=C(NCCCCCN1CCCC1)NCCCC12CC3CC(CC(C3)C1)C2 [Example 38, N-(3-Adamantan-1-yl-propyl)-N′-(5-pyrrolidin-1-yl-pentyl)-guanidine bis-hydrochloride] | 31.6 | 63.1 | – | –
N=C(N)N(CCCCCN1CCCC1)Cc1ccc(Cl)cc1 [Example 69, N-(4-Chlorobenzyl)-N-(5-pyrrolidin-1-yl-pentyl)-guanidine bis-hydrochloride] | 1 | 12.6 | – | –
CN1CCC[C@H]1CCCNS(=O)(=O)N(C)Cc1ccc(Cl)cc1 [Example 121, N-(4-Chlorobenzyl)-N-methyl-N′-(3-(1-methyl-pyrrolidin-2S-yl)-propyl)-sulfamide] | 316 | 1000 | – | –
Cl.Cl.N=C(NCCCCCN1CCCC1)NCC1CCCCCC1 [Example 46, N-Cycloheptyl-methyl-N′(5-pyrrolidin-1-yl-pentyl)-guanidine bis-hydrochloride] | – | – | 8.5 | 7.7
Cl.Cl.N=C(NCCCCCN1CCCC1)NCC12CC3CC(CC(C3)C1)C2 [Example 30, N-Adamantan-1-yl-methyl-N′-(5-pyrrolidin-1-yl-pentyl)-guanidine bis-hydrochloride] | – | – | 8.5 | 7.9
CN1CCC[C@H]1CCCNS(=O)(=O)NCc1ccc(Br)cc1 [Example 113, N-(4-Bromobenzyl)-N′-(3-(1-methyl-pyrrolidin-2S-yl)-propyl)-sulfamide] | 100 | 200 | – | –
Cl.Cl.N=C(NCCCCCN1CCCCC1)NCC12CC3CC(CC(C3)C1)C2 [Example 60, N-Adamantan-1-yl-methyl-N′-(5-piperidin-1-yl-pentyl)-guanidine bis-hydrochloride] | – | – | 8.0 | 8.1
CN1CCC[C@H]1CCCN(CCCN1C(=O)c2ccccc2C1=O)S(=O)(=O)NCc1ccc(Cl)cc1 [Example 125, N-(4-Chlorobenzyl)-N′-(3-phthalimido-propyl)-N′-(3-(1-methyl-pyrrolidin-2S-yl)propyl)-sulfamide] | 316 | > 3160 | – | –
CN1CCC[C@H]1CCCN(C)S(=O)(=O)N(C)Cc1ccc(Cl)cc1 [Example 120, N-(4-Chlorobenzyl)-N,N′-dimethyl-N′-(3-(1-methyl-pyrrolidin-2S-yl)-propyl)-sulfamide] | 501 | 501 | – | –
N=C(NCCCCCN1CCCC1)NCCC12CC3CC(CC(C3)C1)C2 [Example 37, N-(2-Adamantan-1-yl-ethyl)-N′-(5-pyrrolidin-1-yl-pentyl)-guanidine bis-hydrochloride] | 12.6 | 25.1 | – | –
N=C(NCc1ccc(Cl)cc1)N(CCCCN1CCCC1)Cc1ccc(Cl)cc1 [Example 52, N,N′-Bis-(4-Chlorobenzyl)-N-(4-pyrrolidin-1-yl-butyl)-guanidine bis-hydrochloride] | 316 | 316 | – | –

Second part, led by results:

Ki [1] [nM] | Kb [2] [nM] | Structure (SMILES) | pKi (Guinea pig cortex) [1] | pKb (Guinea pig ileum) [2]
50.1 | 1000 | N=C(NCCCN1CCCC1)Nc1ccc(Cl)cc1 [Example 19, N-(4-Chlorophenyl)-N′-(3-pyrrolidin-1-yl-propyl)-guanidine] | – | –
25.1 | 316 | N=C(NCCCN1CCCC1)NCc1cccc(Br)c1 [Example 10, N-(3-Bromobenzyl)-N′-(3-pyrrolidin-1-yl-propyl)-guanidine bis-hydrochloride] | – | –
2.51 | 39.8 | CC(C)CCNC(=N)NCCCCCN1CCCC1 [Example 66] | – | –
1.58 | 15.8 | N=C(N)N(CCCCCCN1CCCC1)Cc1ccccc1 [Example 73, N-Benzyl-N-(6-pyrrolidin-1-yl-hexyl)-guanidine bis-hydrochloride] | – | –
79.4 | 200 | N=C(NCCCCc1ccccc1)NCCCN1CCCC1 [Example 22, N-(4-Phenylbutyl)-N′-(3-pyrrolidin-1-yl-propyl)-guanidine bis-hydrochloride] | – | –

From US6878736B1, “Histamine H3 receptor ligands” (James Black Foundation Limited, priority 1998, dated 2005)
